How the values were obtained:
THP-1 cells = test: LPS-stimulation of THP-1 cells, TNF-α release; format: cell-based; details: Homo sapiens, LPS 1 μg/ml, 6 hrs, inhibitor added 2 hrs before, read-out: Inhibitor activity versus THP-1 TNFα release
Procedure: LPS-Stimulation of THP-1 Cells
THP-1 cells were plated in 100 μl at a density of 4×10^4 cells/well in V-bottomed 96 well tissue culture treated plates and incubated at 37° C. in 5% CO2 for 16 hrs. 2 hrs after the addition of the inhibitor in 100 μl of tissue culture media, the cells were stimulated with LPS (E coli strain 005:B5, Sigma) at a final concentration of 1 μg/ml and incubated at 37° C. in 5% CO2 for 6 hrs. TNF-α levels were measured from cell-free supernatants by sandwich ELISA (R&D Systems #QTA00B)

IKBKB (IKKβ) = target: T1, IKBKB (IKKβ) (Homo sapiens, UniProt O14920); test: IKKβ enzyme assay (Z'-LYTE, Invitrogen); format: biochemical; details: ATP at or close to Km; read-out: Inhibitor activity versus IKKβ
T1 construct: purchased Invitrogen (Paisley, UK)
T1 sequence (O14920 1-756): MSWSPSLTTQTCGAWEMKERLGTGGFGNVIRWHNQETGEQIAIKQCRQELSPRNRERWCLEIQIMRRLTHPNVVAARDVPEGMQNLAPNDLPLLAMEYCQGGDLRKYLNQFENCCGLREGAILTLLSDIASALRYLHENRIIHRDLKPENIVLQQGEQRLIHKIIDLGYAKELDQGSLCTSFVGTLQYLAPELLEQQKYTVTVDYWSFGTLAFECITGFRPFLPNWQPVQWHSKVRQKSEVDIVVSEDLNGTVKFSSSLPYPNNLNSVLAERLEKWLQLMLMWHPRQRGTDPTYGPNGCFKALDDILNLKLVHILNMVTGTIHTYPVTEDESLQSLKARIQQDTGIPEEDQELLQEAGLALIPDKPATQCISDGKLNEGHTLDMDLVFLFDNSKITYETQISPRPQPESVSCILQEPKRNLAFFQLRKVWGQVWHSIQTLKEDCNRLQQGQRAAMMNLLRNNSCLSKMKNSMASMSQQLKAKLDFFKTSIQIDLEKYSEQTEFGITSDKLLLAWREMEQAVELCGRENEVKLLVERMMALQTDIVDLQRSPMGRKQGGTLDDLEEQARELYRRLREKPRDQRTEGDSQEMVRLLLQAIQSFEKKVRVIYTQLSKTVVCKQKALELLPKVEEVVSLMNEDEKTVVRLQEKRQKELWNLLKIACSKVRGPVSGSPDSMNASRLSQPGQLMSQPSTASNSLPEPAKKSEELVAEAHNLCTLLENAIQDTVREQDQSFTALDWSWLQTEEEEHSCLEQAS
Procedure: The ability of compounds to inhibit IKKβ kinase activity was measured in an assay performed by Invitrogen (Paisley, UK). The Z′-LYTE™ biochemical assay employs a fluorescence-based, coupled-enzyme format and is based on the differential sensitivity of phosphorylated and non-phosphorylated peptides to proteolytic cleavage. The peptide substrate is labelled with two fluorophores—one at each end—that make up a FRET pair. In the primary reaction, the kinase transfers the gamma-phosphate of ATP to a single serine or threonine residue in a synthetic FRET-peptide. In the secondary reaction, a site-specific protease recognizes and cleaves non-phosphorylated FRET-peptides. Phosphorylation of FRET-peptides suppresses cleavage by the Development Reagent. Cleavage disrupts FRET between the donor (i.e., coumarin) and acceptor (i.e. fluorescein) fluorophores on the FRET-peptide, whereas uncleaved, phosphorylated FRET-peptides maintain FRET. A […] method, which calculates the ratio (the Emission Ratio) of donor emission to acceptor emission after excitation of the donor fluorophore at 400 nm, is used to quantitate reaction progress.
The final 10 μL Kinase Reaction consists of 0.9-8.0 ng IKBKB (IKKβ), 2 μM Ser/Thr 05 Peptide and ATP in 50 mM HEPES pH 7.5, 0.01% BRIJ-35, 10 mM MgCl2, 1 mM EGTA. The assay is performed at an ATP concentration at, or close to the Km. After the 60 minute Kinase Reaction incubation at room temperature, 5 μL of a 1:128 dilution of Development Reagent is added. The assay plate is incubated for a further 60 minutes at room temperature and read on a fluorescence plate reader.
Duplicate data points are generated from a ⅓ log dilution series of a stock solution of test compound in DMSO. Nine dilutions steps are made from a top concentration of 10 μM, and a ‘no compound’ blank is included. Data is collected and analysed using XLfit software from IDBS. The dose response curve is curve fitted to model number 205 (sigmoidal dose-response model). From the curve generated, the concentration giving 50% inhibition is determined and reported.

human whole blood = test: LPS-stimulation of human whole blood, TNF-α release; format: cell-based; details: LPS 100 ng/ml, 6 hrs, inhibitor added 2 hrs before, read-out: Inhibitor activity versus human whole blood TNFα release
Procedure: LPS-Stimulation of Human Whole Blood
Whole blood was taken by venous puncture using heparinised vacutainers (Becton Dickinson) and diluted in an equal volume of RPMI1640 tissue culture media (Sigma). 100 μl was plated in V-bottomed 96 well tissue culture treated plates. 2 hrs after the addition of the inhibitor in 100 μl of RPMI1640 media, the blood was stimulated with LPS (E coli strain 005:B5, Sigma) at a final concentration of 100 ng/ml and incubated at 37° C. in 5% CO2 for 6 hrs. TNF-α levels were measured from cell-free supernatants by sandwich ELISA (R&D Systems #QTA00B)

SMILES	IC50 (THP-1 cells)	IC50 (IKBKB (IKKβ))	IC50 (human whole blood)
NC(=O)Nc1sc(-c2ccc(/C=C/C[C@H](N)C(=O)OC3CCCC3)cc2Cl)cc1C(N)=O [Example 13, Cyclopentyl (2S,4E)-2-amino-5-{4-[4-carbamoyl-5-(carbamoylamino)-2-thienyl]-3-chlorophenyl}pent-4-enoate]	< 1 µM	< 1 µM	1 to 5 µM
Cc1cc(-c2cc(C(N)=O)c(NC(N)=O)s2)ccc1OCC[C@H](N)C(=O)OC1CCCC1 [Example 6, Cyclopentyl O-{4-[4-carbamoyl-5-(carbamoylamino)-2-thienyl]-2-methylphenyl}-L-homoserinate]	< 1 µM	< 1 µM	> 5 µM
NC(=O)Nc1sc(-c2ccc(OCCC[C@H](N)C(=O)OC3CCCC3)cc2)cc1C(N)=O [Example 3, Cyclopentyl 5-{4-[4-carbamoyl-5-(carbamoylamino)-2-thienyl]phenoxy}-L-norvalinate]	1 to 5 µM	< 1 µM	> 5 µM
NC(=O)Nc1sc(-c2ccc(C#CC[C@H](N)C(=O)OC3CCCC3)cc2)cc1C(N)=O [Example 15, Cyclopentyl (2S)-2-amino-5-{4-[4-carbamoyl-5-(carbamoylamino)-2-thienyl]phenyl}pent-4-ynoate]	1 to 5 µM	< 1 µM	> 5 µM
NC(=O)Nc1sc(-c2ccc(/C=C\C[C@H](N)C(=O)OC3CCCC3)cc2)cc1C(N)=O [Example 18, Cyclopentyl (2S,4Z)-2-amino-5-{4-[4-carbamoyl-5-(carbamoylamino)-2-thienyl]phenyl}pent-4-enoate]	1 to 5 µM	< 1 µM	1 to 5 µM
Cc1cc(-c2cc(C(N)=O)c(NC(N)=O)s2)ccc1/C=C/C[C@H](N)C(=O)OC1CCCC1 [Example 14, Cyclopentyl (2S,4E)-2-amino-5-{4-[4-carbamoyl-5-(carbamoylamino)-2-thienyl]-2-methylphenyl}pent-4-enoate]	< 1 µM	< 1 µM	< 1 µM
